{
  "source": "patent US20130243707A1",
  "about": "“TOPICAL COMPOSITIONS” (priority 2006, published 2013)",
  "key": {"[1]": {"tested_on": "proliferation of lymphocytes in the draining lymph nodes", "experiment": "Local lymph node stimulation assay", "type": "in vivo, CBA/J female mice", "conditions": "positive control", "procedure": "Compositions of Example 39 are subjected to a local lymph node stimulation assay in CBA/J female mice to determine if present compositions produce a hypersensitivity response as measured by the proliferation of lymphocytes in the draining lymph nodes. Ten groups of 5 mice each are used. Five groups are treated on the dorsal surface of both ears once per day for 3 days the compositions or with a positive control (35% hexylcinnamaldehyde (HCA)). On Day 6, the mice are injected intravenously (IV) with 20 μCi of ^3H-thymidine in sterile saline. Five hours later the mice are euthanized and the draining auricular lymph nodes are removed. […] A three-fold or greater increase in proliferative activity relative to the concurrent vehicle-treated control is considered a positive response. […] Since both of these stimulation indices are greater than 3, the positive controls indeed produced a positive response."}, "[2]": {"experiment": "Super-solvent water effect (maximum water before NSAID precipitates)", "type": "physicochemical", "conditions": "for Super-solvent Effect: in %", "procedure": "Methods. […] These amounts are chosen based upon the solubility of one gram of NSAID and the amount of the single solvent alcohol for saturation. Next, water was added in step-wise manner to determine the maximum amount that can be added before any visible amount of the NSAID precipitated (i.e., the volume of water that can be added and yet remain single phasic)."}, "[3]": {"experiment": "Solubility of Drugs in single solvent alcohols", "type": "physicochemical", "procedure": "Briefly, the indicated NSAID was weighed and added to a beaker. To each beaker, incremental amounts of the indicated solvent was weighed and added. The beakers were sealed with aluminum foil and placed at room temperature or in a 35 C water bath for 20-30 minutes. They beakers were shaken frequently to mix the contents. After 20-30 minutes the solvent alcohols were examined. If a single phasic solution was not yet achieved, an additional aliquot of the solvent was added and the cycle was repeated until complete solvation had occurred."}, "[4]": {"experiment": "Prodrug (ester) formation upon storage, HPLC", "type": "physicochemical", "conditions": "for rate of prodrug generation: 2% propylene glycol, linear for at least the first 26 days", "procedure": "Next, the peak was characterized in terms of retention position, UV spectrum and mass spectroscopy response. In addition, isolates of the peak were collected from the chromatograph system employed for liquid chromatography-mass spectroscopy. […] The solution was centrifuged and the supernatant collected for analysis. Chromatography was conducted as follows: • Pumps: Hewlett Packard Model 1100 Binary Systems • Solvent A: Water • Solvent B: Acetonitrile • Gradient: […] Sequential detection was performed by UV absorbance using an HP diode array detector followed by ESI-MS […] using a Sciex O-Star/Pulsar quadrupole-TOF mass spectrometer operating in either the positive and negative ion modes. […] At acidic pH (e.g. […]), prodrug formation was relatively independent of Drug concentration. However, at pH 5, prodrug formation seemed to be first order (i.e. dependant upon the Drug concentration)."}, "[5]": {"conditions": "cited from earlier work"}, "[6]": {"conditions": "cited from earlier work", "remark": "listed apart in the source"}, "[7]": {"conditions": "Flurbiprofen 2 gm, EtOH 2 gm, IPA 3 gm"}, "[8]": {"conditions": "Flurbiprofen 2 gm, PEG 2 gm, EtOH 2 gm"}, "[9]": {"conditions": "Flurbiprofen 2 gm, PEG 2 gm, IPA 3 gm"}, "[10]": {"conditions": "Flurbiprofen 2 gm, PG 6 gm, EtOH 2 gm"}, "[11]": {"conditions": "Flurbiprofen 2 gm, PG 6 gm, IPA 3 gm"}, "[12]": {"conditions": "Flurbiprofen 2 gm, PG 6 gm, PEG 2 gm"}, "[13]": {"conditions": "Flurbiprofen 3 gm, PEG 2 gm, EtOH 2 gm, IPA 3 gm"}, "[14]": {"conditions": "Flurbiprofen 3 gm, PG 6 gm, EtOH 2 gm, IPA 3 gm"}, "[15]": {"conditions": "Flurbiprofen 3 gm, PG 6 gm, PEG 2 gm, EtOH 2 gm"}, "[16]": {"conditions": "Flurbiprofen 3 gm, PG 6 gm, PEG 2 gm, IPA 3 gm"}, "[17]": {"conditions": "Flurbiprofen 4 gm, PG 6 gm, PEG 2 gm, EtOH 2 gm, IPA 3 gm"}},
  "data": [
    {"smiles": "CCCCCC/C(C=O)=C\\c1ccccc1", "note": "[HCA, hexylcinnamaldehyde]", "values": [
      {"measurement": "stimulation index", "setting": "[1]; 35% HCA in ISW-AP-01 placebo", "result": 4.6},
      {"measurement": "stimulation index", "setting": "[1]; 35% HCA in ethanol", "result": 4.4}
    ]},
    {"smiles": "CC(C)Cc1ccc(C(C)C(=O)O)cc1", "note": "(stereo not shown) [Ibuprofen]", "values": [
      {"measurement": "Super-solvent Effect on water", "setting": "[2]; Ibuprofen 2 gm, EtOH 1 gm, IPA 1.1 gm", "result": 11.4, "unit": "%"},
      {"measurement": "Super-solvent Effect on water", "setting": "[2]; Ibuprofen 2 gm, PEG 3 gm, EtOH 1 gm", "result": 45.9, "unit": "%"},
      {"measurement": "Super-solvent Effect on water", "setting": "[2]; Ibuprofen 2 gm, PEG 3 gm, IPA 1.1 gm", "result": 55, "unit": "%"},
      {"measurement": "Super-solvent Effect on water", "setting": "[2]; Ibuprofen 2 gm, PG 4 gm, EtOH 1 gm", "result": 65.8, "unit": "%"},
      {"measurement": "Super-solvent Effect on water", "setting": "[2]; Ibuprofen 2 gm, PG 4 gm, IPA 1.1 gm", "result": 65.3, "unit": "%"},
      {"measurement": "Super-solvent Effect on water", "setting": "[2]; Ibuprofen 2 gm, PG 4 gm, PEG 3 gm", "result": 56, "unit": "%"},
      {"measurement": "Super-solvent Effect on water", "setting": "[2]; Ibuprofen 3 gm, PEG 3 gm, EtOH 1 gm, IPA 1.1 gm", "result": 40.4, "unit": "%"},
      {"measurement": "Super-solvent Effect on water", "setting": "[2]; Ibuprofen 3 gm, PG 4 gm, EtOH 1 gm, IPA 1.1 gm", "result": 63.2, "unit": "%"},
      {"measurement": "Super-solvent Effect on water", "setting": "[2]; Ibuprofen 3 gm, PG 4 gm, PEG 3 gm, EtOH 1 gm", "result": 57.5, "unit": "%"},
      {"measurement": "Super-solvent Effect on water", "setting": "[2]; Ibuprofen 3 gm, PG 4 gm, PEG 3 gm, IPA 1.1 gm", "result": 57.2, "unit": "%"},
      {"measurement": "Maximum Drug Concentration in single alcohol: EtOH", "setting": "[3]; Solubility at 35 C", "result": 50.00},
      {"measurement": "Maximum Drug Concentration in single alcohol: IPA", "setting": "[3]; Solubility at 35 C", "result": 47.62},
      {"measurement": "Maximum Drug Concentration in single alcohol: PEG", "setting": "[3]; Solubility at 35 C", "result": 25.00},
      {"measurement": "Maximum Drug Concentration in single alcohol: PG", "setting": "[3]; Solubility at 35 C", "result": 20.00},
      {"measurement": "Maximum Drug Concentration in single alcohol: EtOH", "setting": "[3]; Solubility at Room Temperature", "result": 37.04},
      {"measurement": "Maximum Drug Concentration in single alcohol: IPA", "setting": "[3]; Solubility at Room Temperature", "result": 35.71},
      {"measurement": "Maximum Drug Concentration in single alcohol: PEG", "setting": "[3]; Solubility at Room Temperature", "result": 22.22},
      {"measurement": "Maximum Drug Concentration in single alcohol: PG", "setting": "[3]; Solubility at Room Temperature", "result": 15.38},
      {"measurement": "prodrug generation upon storage (HPLC)", "setting": "[4]; composition of 15% ibuprofen, about 60% ethanol, 3% glycerin, 2% propylene glycol stored for 3 months at 25 C", "result": "A new peak (i.e., the prodrug) distinct from the ibuprofen peak was detected"},
      {"measurement": "effect of Drug concentration and pH on prodrug generation", "setting": "[4]; compositions of ibuprofen with ethanol as solvent (FIG. 7)", "result": "higher pH (e.g. 5.0) substantially decreases the rate of prodrug formation"},
      {"measurement": "rate of prodrug generation", "setting": "[4]; pH 3.7, composition of 15% ibuprofen, about 60% ethanol, 3% glycerin", "result": "approximately 0.05 % per day"},
      {"measurement": "rate of prodrug generation", "setting": "[4]; pH 5, composition of 15% ibuprofen, about 60% ethanol, 3% glycerin", "result": "about 0.025 % per day"}
    ]},
    {"smiles": "CC(C(=O)O)c1ccc(-c2ccccc2)c(F)c1", "note": "(stereo not shown) [Flurbiprofen]", "values": [
      {"measurement": "Flurbiprofen % W/W", "setting": "[2]; Flurbiprofen 1 gm, EtOH 2 gm", "result": 20.0, "unit": "% W/W"},
      {"measurement": "Water Observed", "setting": "[2]; Flurbiprofen 1 gm, EtOH 2 gm", "result": 2, "unit": "gm"},
      {"measurement": "Flurbiprofen % W/W", "setting": "[2]; Flurbiprofen 1 gm, IPA 3 gm", "result": 14.3, "unit": "% W/W"},
      {"measurement": "Water Observed", "setting": "[2]; Flurbiprofen 1 gm, IPA 3 gm", "result": 3, "unit": "gm"},
      {"measurement": "Flurbiprofen % W/W", "setting": "[2]; Flurbiprofen 1 gm, PEG 2 gm", "result": 25.0, "unit": "% W/W"},
      {"measurement": "Water Observed", "setting": "[2]; Flurbiprofen 1 gm, PEG 2 gm", "result": 1, "unit": "gm"},
      {"measurement": "Flurbiprofen % W/W", "setting": "[2]; Flurbiprofen 1 gm, PG 6 gm", "result": 12.5, "unit": "% W/W"},
      {"measurement": "Water Observed", "setting": "[2]; Flurbiprofen 1 gm, PG 6 gm", "result": 1, "unit": "gm"},
      {"measurement": "Flurbiprofen % W/W", "setting": "[2]; [7]", "result": 18.2, "unit": "% W/W"},
      {"measurement": "Super-solvent Effect", "setting": "[2]; [7]", "result": 37.1},
      {"measurement": "Flurbiprofen % W/W", "setting": "[2]; [8]", "result": 25.0, "unit": "% W/W"},
      {"measurement": "Super-solvent Effect", "setting": "[2]; [8]", "result": 0.0},
      {"measurement": "Flurbiprofen % W/W", "setting": "[2]; [9]", "result": 15.4, "unit": "% W/W"},
      {"measurement": "Super-solvent Effect", "setting": "[2]; [9]", "result": 135.7},
      {"measurement": "Flurbiprofen % W/W", "setting": "[2]; [10]", "result": 12.5, "unit": "% W/W"},
      {"measurement": "Super-solvent Effect", "setting": "[2]; [10]", "result": 160.0},
      {"measurement": "Flurbiprofen % W/W", "setting": "[2]; [11]", "result": 11.8, "unit": "% W/W"},
      {"measurement": "Super-solvent Effect", "setting": "[2]; [11]", "result": 104.5},
      {"measurement": "Flurbiprofen % W/W", "setting": "[2]; [12]", "result": 14.3, "unit": "% W/W"},
      {"measurement": "Super-solvent Effect", "setting": "[2]; [12]", "result": 140.0},
      {"measurement": "Flurbiprofen % W/W", "setting": "[2]; [13]", "result": 18.8, "unit": "% W/W"},
      {"measurement": "Super-solvent Effect", "setting": "[2]; [13]", "result": 60.0},
      {"measurement": "Flurbiprofen % W/W", "setting": "[2]; [14]", "result": 13.6, "unit": "% W/W"},
      {"measurement": "Super-solvent Effect", "setting": "[2]; [14]", "result": 90.5},
      {"measurement": "Flurbiprofen % W/W", "setting": "[2]; [15]", "result": 17.6, "unit": "% W/W"},
      {"measurement": "Super-solvent Effect", "setting": "[2]; [15]", "result": 30.8},
      {"measurement": "Flurbiprofen % W/W", "setting": "[2]; [16]", "result": 13.6, "unit": "% W/W"},
      {"measurement": "Super-solvent Effect", "setting": "[2]; [16]", "result": 117.1},
      {"measurement": "Flurbiprofen % W/W", "setting": "[2]; [17]", "result": 15.4, "unit": "% W/W"},
      {"measurement": "Super-solvent Effect", "setting": "[2]; [17]", "result": 81.5},
      {"measurement": "Maximum Drug Concentration in single alcohol: EtOH", "setting": "[3]; Solubility at 35 C", "result": 33.33},
      {"measurement": "Maximum Drug Concentration in single alcohol: IPA", "setting": "[3]; Solubility at 35 C", "result": 25.00},
      {"measurement": "Maximum Drug Concentration in single alcohol: PEG", "setting": "[3]; Solubility at 35 C", "result": 33.33},
      {"measurement": "Maximum Drug Concentration in single alcohol: PG", "setting": "[3]; Solubility at 35 C", "result": 14.29},
      {"measurement": "Maximum Drug Concentration in single alcohol: EtOH", "setting": "[3]; Solubility at Room Temperature", "result": 16.67},
      {"measurement": "Maximum Drug Concentration in single alcohol: IPA", "setting": "[3]; Solubility at Room Temperature", "result": 14.29},
      {"measurement": "Maximum Drug Concentration in single alcohol: PEG", "setting": "[3]; Solubility at Room Temperature", "result": 12.50},
      {"measurement": "Maximum Drug Concentration in single alcohol: PG", "setting": "[3]; Solubility at Room Temperature", "result": 6.25},
      {"measurement": "pKa", "setting": "[5]", "result": 4.14},
      {"measurement": "Log P", "setting": "[6]", "result": 4.16}
    ]}
  ]
}
